Measurements: PubChem BioAssay (NCI)
Values joined by “and” are separate entries in the source; they are usually repeats but may differ in a detail not shown here. Equal entries are not always repeated.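 Dose response: 5 concentrations. Exposure: 48 h. Format: 96-well plates. Endpoint: linear interpolation; highest concentration if not reached. Here, GI50 denotes the concentration required for 50% inhibition of growth. TGI marks complete inhibition of growth.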

What was measured:
Test in all cases: NCI-60 cell line screen, 48 h
BT-549 breast = system: BT-549 breast
NCI-H226 lung = system: NCI-H226 lung
COLO 205 colon = system: COLO 205 colon
SK-MEL-28 melanoma = system: SK-MEL-28 melanoma
M14 melanoma = system: M14 melanoma
SK-OV-3 ovarian = system: SK-OV-3 ovarian
MOLT-4 leukemia = system: MOLT-4 leukemia
LOX IMVI melanoma = system: LOX IMVI melanoma
UO-31 renal = system: UO-31 renal
DU-145 prostate = system: DU-145 prostate

| Structure (SMILES) | TGI (BT-549 breast) | TGI (NCI-H226 lung) | TGI (COLO 205 colon) | TGI (SK-MEL-28 melanoma) | TGI (M14 melanoma) | TGI (SK-OV-3 ovarian) | TGI (MOLT-4 leukemia) | TGI (LOX IMVI melanoma) | TGI (UO-31 renal) | GI50 (BT-549 breast) [µM] | GI50 (NCI-H226 lung) [µM] | GI50 (SK-MEL-28 melanoma) [µM] | GI50 (UO-31 renal) [µM] | GI50 (LOX IMVI melanoma) [µM] | GI50 (COLO 205 colon) [µM] | GI50 (M14 melanoma) [µM] | GI50 (SK-OV-3 ovarian) [µM] | GI50 (DU-145 prostate) [µM] | TGI (DU-145 prostate) [µM] | GI50 (MOLT-4 leukemia) [µM] |
| --- | --- | --- | --- | --- | --- | --- | --- | --- | --- | --- | --- | --- | --- | --- | --- | --- | --- | --- | --- | --- |
| Nc1ncnc2c1ncn2C1OC(COC2C(CO)OC(OC(C(=O)O)C(O)C(OP(=O)(O)O)C(O)C(=O)O)C(O)C2O)C(O)C1O (stereo not given) | > 100 µM | > 100 µM | > 100 µM | > 100 µM | > 100 µM | > 100 µM | > 100 µM | > 100 µM | – | – | – | – | – | – | – | – | – | – | – | – |
| COC1CC(OC)C(O)C(CO)O1 (stereo not given) | – | – | – | > 100 µM | > 100 µM | > 100 µM | > 100 µM | > 100 µM | > 100 µM | – | – | – | – | – | – | – | – | – | – | – |
| COc1ccccc1NC(=O)C(CC(C(=O)Nc1ccccc1OC)/C(C)=N/NC(=O)c1ccccc1O)/C(C)=N/NC(=O)c1ccccc1O (stereo not given) | – | > 100 µM | > 100 µM | > 100 µM | > 100 µM | > 100 µM | > 100 µM | > 100 µM | > 100 µM | – | – | – | – | – | – | – | – | – | – | – |
| COC(=O)C1=C(C)N(NC(N)=O)C(C)(O)C12CCOC2=O (stereo not given) | – | > 100 µM | > 100 µM | > 100 µM | > 100 µM | > 100 µM | > 100 µM | > 100 µM | > 100 µM | – | – | – | – | – | – | – | – | – | – | – |
| Cc1ccc(N2C(=O)C(Cl)=C(Cl)C2=O)cc1 | – | > 100 µM | 30.7 µM | 31.5 µM | 36.7 µM | > 100 µM | 46.5 µM | 55.5 µM | > 100 µM | – | – | – | – | – | – | – | – | – | – | – |
| FC(F)(F)c1nc(-c2ccccc2)oc1Sc1oc(-c2ccccc2)nc1C(F)(F)F | – | > 100 µM | > 100 µM | – | > 100 µM | > 100 µM | > 100 µM | > 100 µM | > 100 µM | – | – | – | – | – | – | – | – | – | – | – |
| Cc1ccccc1NC(=O)c1ccc([N+](=O)[O-])cc1 | – | > 100 µM | > 100 µM | > 100 µM | > 100 µM | > 100 µM | > 100 µM | > 100 µM | > 100 µM | – | – | – | – | – | – | – | – | – | – | – |
| CCCCCCNCCCNc1c2ccccc2nc2cccc([N+](=O)[O-])c12 | 0.271 µM and 0.448 µM | 0.274 µM and 0.148 µM | 0.0149 µM and 0.0415 µM | 0.323 µM and 0.375 µM | 0.0247 µM and 0.0205 µM | 0.278 µM and 0.39 µM | 0.0854 µM and 0.0641 µM | 0.0818 µM and 0.295 µM | 0.393 µM and 0.331 µM | 0.212 | 0.0228 | 0.0534 | 0.145 | 0.044 | – | – | – | – | – | – |
| Cn1sc2ccccc2c1=S | – | 53.4 µM | 26.2 µM | 22 µM | 22.2 µM | > 59.8 µM | 14.1 µM | 4.5 µM | 28.7 µM | – | – | – | – | – | – | – | – | – | – | – |
| C=C[C@H]1C=Cc2c(OC)cccc2[C@@H]1COP1(=S)NC(C)C(c2ccccc2)O1 (stereo not given in full) | – | > 100 µM | > 100 µM | > 100 µM | > 100 µM | > 100 µM | > 100 µM | > 100 µM | – | – | – | – | – | – | – | – | – | – | – | – |
| O=C(O)c1ccccc1Nc1ccc2nnc(-c3ccncc3)n2n1 | 8.33 µM | – | 30.8 µM | 29.6 µM | 40.9 µM | > 100 µM | > 100 µM | 4.1 µM | 15.5 µM | 2.59 | – | 12.7 | 3.81 | 1.97 | 13 | 7.03 | 22 | 11.5 | 25.6 | 6.99 |
